Data set [1] concerns spike-and-wave discharges induced by gamma-butyrolactone (GBL). The data set can be described thus: GBL induced absence seizure model, quantified EEG (spectral power, cortex). It counts as in vivo, beagle dogs.
Method: The experiment was carried out on nine male non-naïve beagle dogs, weighing 9-15 kg. All animals were housed in a box or in a kennel under natural lighting with restricted access to food (approx. 300 g/animal/day) and unlimited access to water.
Dogs were implanted with an Emka Technologies telemetric device. Following an incision in the lateral neck region, the telemetric device was introduced into a pouch under the skin. The positive and negative biopotential electrodes were coiled into a loop and tunnelled subcutaneously to protrude into the opened scalp incision. The skin incisions then were closed.
Following a sagittal incision of the scalp, the top of the skull was prepared for implantation. The incision was performed between bregma and lambda sutures in order to place electrodes over the parietal cortex. Three small holes were drilled into the skull, on the right hemisphere. The tips of the electrodes were then pushed through the holes through the skull onto the dura mater. The electrodes were connected to small plugs, placed into a connector and the whole assembly was secured on skull with dental cement. The skin incisions then were closed using aseptic chirurgical thread.
Approximately 2 weeks later, the dogs were placed in a sling for the experiment.
For EEG recording, a telemetry receiver was located nearby the animal to record EEG.
All generated data was acquired and analysed using the EMKA Technologies software. The quality of the EEG signals was checked before launching EEG recording.
Before the experiment, EEG signals were recorded during a few minutes in baseline conditions to check the quality of the signals.
The baseline EEG recording was done for each dog, one day before the test session and lasted 40 minutes. Baseline and test sessions were done at the same time of the day for each dog.
EEG signals were recorded during 40 minutes to evaluate spike-and-wave discharges. The latency to observe spike-and-wave discharges was determined off-line on EEG signals.
The differential outputs between the 2 electrodes at each implantation site were digitized on-line at a sampling rate of 500 Hz/channel and the data stored in raw data files.
EEG was quantitatively analysed by spectral analysis using a Fast Fourier Transform algorithm. Spectra were calculated from epochs of 4.1-second duration. The mean total spectral power between 1.5 and 64 Hz and the power in 6 sub-frequency bands per brain structure recorded (1.5-4 (delta), 5-8 (theta), 8.5-12.5 (alpha), 13-35 (beta), 36-64 (gamma) and 3-6 Hz) was calculated on four 10-minute periods (from 0 to 10, 10 to 20, 20 to 30 and 30 to 40 minutes during baseline and test sessions).
Before being submitted to further analysis, all spectra containing recording artefacts found on visual inspection of the EEG traces were eliminated. Then the averages of 10-minute intervals of the verified individual spectra were saved into data files which then were transferred into Excel calculation sheets.
Data set [2] deals with pilocarpine-induced seizures. The following applies: rodent seizure models; cited from earlier work.
Data set [3] concerns postnatal day 10 and 20 rats. The following applies: cited from earlier work.
Another data set relates to focal seizures in humans. The following applies: Phase II, placebo group similar; cited from earlier work.
The nature of data set [4]: Adverse effects observed in dogs of the GBL model studies.
[5] abbreviates: CBDV 100 mg/kg p.o. 4 hours before GBL, across all four time periods.

The values below come from patent publication US20240226123A9, “USE OF CANNABIDIVARIN IN THE TREATMENT OF SEIZURES ASSOCIATED WITH CANINE EPILEPSY” (GW Research Limited, priority 2021, published 2024).

Regarding `C=C(C)[C@@H]1CCC(C)=C[C@H]1c1c(O)cc(CCC)cc1O` [CBDV, cannabidivarin], in data set [1] (setting [5]), the “power of high frequency bands (beta and gamma)” value is listed as “increased”; the “spectral power of lower frequency bands (delta, theta and alpha)” value is “decreased”. Moreover, in data set [1] (CBDV 100 mg/kg p.o. 4 hours before GBL, time-interval 30-40 minutes, vs vehicle controls, p<0.05), the “spectral power on delta frequency bands” value was “significantly decreased”. Besides, the “spectral power on 3-6 Hz frequency band” value in data set [1] (CBDV 100 mg/kg p.o., following GBL administration, vs vehicle control) is “lowered”. In addition, the “effect in pilocarpine-induced seizures” value in data set [2] is “not found to have any effect”. Further, in data set [3], the anticonvulsant action entry was “age and model-specific profile of anticonvulsant action”. Further, the “reductions in focal seizures” value in the data set on focal seizures in humans was “approximately 40%”.

In the case of `CN1C(=O)CN=C(c2ccccc2)c2cc(Cl)ccc21` [Diazepam], the “power of high frequency bands (beta and gamma)” value in data set [1] (Diazepam 2 mg/kg p.o., across all four time periods) was “increased”. In addition, the adverse effects observed entry is “Motor incoordination and psychotic effects (stereotypies, involuntary movements, barks)” in data set [4] (diazepam 4 mg/kg, three dogs, during the test, after GBL administration); “the symptoms were stronger” in data set [4] (diazepam 6 mg/kg, two dogs, GBL could not be administered).
